Test system: LNCaP/AR cells
Test: Inhibition of the proliferation of LNCap/AR cells (CCK-8)
Assay type: cell-based
Settings: 144 h; LNCaP/AR cells, 6 days culture, CCK-8; read-out: LNCap/AR IC50
How it was run: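 Proliferation was read by CCK-8 (OD 450 nm, 1 h) after six days of compound exposure. Cells were seeded at 1000 per well overnight, then dosed in duplicate over nine 3-fold steps with a top final concentration of 10 μM in 0.1% DMSO; IC50 was fitted from inhibition curves.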

Structure (SMILES): CC(=O)O[C@@H]1C[C@@H](C(=O)N[C@@H](C)c2ccc(-c3scnc3C)cc2)N(C(=O)[C@@H](NC(=O)COCCCCCN(c2ccc(-n3ccnc3)c(Cl)c2)c2cc(-c3c(C)noc3C)ccc2C)C(C)(C)C)C1 [Compound 11, (3R,5S)-1-((S)-2-(2-((5-((3-chloro-4-(1H-imidazol-1-yl)phenyl)(5-(3,5-dimethylisoxazol-4-yl)-2-methylphenyl)amino)n-pentyl)oxy)acetylamino)-3,3-dimethylbutyryl)-5-(((S)-1-(4-(4-methylthiazol-5-yl)phenyl)ethyl)formylamino)pyrrolidinyl-3-acetate]
- IC50: 501 to 2000 nM

Structure (SMILES): Cc1ccc(-c2c(C)noc2C)cc1N(CCCCCOCC(=O)Nc1cccc2c1CN(C1CCC(=O)NC1=O)C2=O)c1ccc(Br)cc1 (centres unmarked) [Compound 27, 2-((5-((4-Bromophenyl)(5-(3,5-Dimethylisoxazol-4-yl)-2-methylphenyl)amino)pentyl)oxy)-N-(2-(2,6-dioxopiperidin-3-yl)-1-oxoisoindolin-4-yl)acetamide]
- IC50: 501 to 2000 nM

Structure (SMILES): CC(=O)O[C@@H]1C[C@@H](C(=O)N[C@@H](C)c2ccc(-c3scnc3C)cc2)N(C(=O)[C@@H](NC(=O)COCCN2CC(CN(c3ccc(-n4ccnc4)c(Br)c3)c3cc(-c4c(C)noc4C)ccc3C)C2)C(C)(C)C)C1 [Compound 51, (3R,5S)-1-((S)-2-(2-(3-((3-bromo-4-(1H-imidazol-1-yl)phenyl) (5-(3,5-dimethylisoxazol-4-yl)-2-methylphenyl)amino)methyl)azetidine-1-yl)ethoxy)acetamido)-3,3-dimethylbutanol)-5-((S)-(4-methylthiazol-5-yl)phenyl)ethyl)carbamoyl)pyrrolidine-3-yl acetate]
- IC50: > 2000 nM

Structure (SMILES): CC(=O)O[C@@H]1C[C@@H](C(=O)N[C@@H](C)c2ccc(-c3scnc3C)cc2)N(C(=O)[C@@H](NC(=O)COCCCCCN(c2ccc(-n3cnnc3)cc2)c2cc(-c3c(C)noc3C)ccc2C)C(C)(C)C)C1 [Compound 94]
- IC50: 101 to 500 nM

Structure (SMILES): CC(=O)O[C@@H]1C[C@@H](C(=O)N[C@@H](C)c2ccc(-c3scnc3C)cc2)N(C(=O)[C@@H](NC(=O)CN2CCC(CCCN(c3ccc(-n4ccnc4)c(Br)c3)c3cc(-c4c(C)noc4C)ccc3C)CC2)C(C)(C)C)C1 [Compound 142, (3R,5S)-1-((S)-2-(2-(4-(3-((3-Bromo-4-(1H-imidazol-1-yl)phenyl)(5-(3,5-4-yl)-2-methylphenyl)amino)propyl)piperidin-1-yl)acetamido)-3,3-dimethylbutyryl)-5-(((S)-1-(4-(4-methylthiazol-5-yl)phenyl)ethyl)carbamoyl)pyrrolidinyl-3-acetate]
- IC50: 101 to 500 nM

Structure (SMILES): CC(=O)O[C@@H]1C[C@@H](C(=O)N[C@@H](C)c2ccc(-c3scnc3C)cc2)N(C(=O)[C@@H](NC(=O)COCCCCCN(c2ccc(-n3ccnc3C)cc2)c2cc(-c3c(C)noc3C)ccc2C)C(C)(C)C)C1 [Compound 98, (3R,5S)-1-((S)-2-(2-((5-((5-(3,5-dimethylisoxazol-4-yl)-2-methylphenyl)(4-(2-methyl-1H-imidazol-1-yl)phenyl)amino)pentyl)oxy)acetylamino)-3,3-dimethylbutyryl)-5-(((S)-1-(4-(4-methylthiazol-5-yl)phenyl)ethyl)aminoformyl)pyrrolidinyl-3-yl acetate]
- IC50: 101 to 500 nM

Structure (SMILES): CC(=O)O[C@@H]1C[C@@H](C(=O)N[C@@H](C)c2ccc(-c3scnc3C)cc2)N(C(=O)[C@@H](NC(=O)COCCCCCN(c2ccc(-n3ccnn3)cc2)c2cc(-c3c(C)noc3C)ccc2C)C(C)(C)C)C1 [Compound 90, (3R,5S)-1-((S)-2-(2-((5-((4-(1H-1,2,3-triazol-1-yl)phenyl)(5-(3,5-dimethylisoxazol-4-yl)-2-methylphenyl)amino)pentyl)oxy)acetylamino)-3,3-dimethylbutyryl)-5-(((S)-1-(4-(4-methylthiazol-5-yl)phenyl)ethyl)aminoformyl)pyrrolidinyl-3-yl acetate]
- IC50: 101 to 500 nM

Structure (SMILES): Cc1ccc(-c2c(C)noc2C)cc1N(CCC1CCN(CC(=O)N[C@H](C(=O)N2C[C@H](O)C[C@H]2C(=O)N[C@@H](C)c2ccc(-c3scnc3C)cc2)C(C)(C)C)CC1)c1ccc(-n2ccnc2)c(Br)c1 [Compound 24]
- IC50: > 2000 nM

Source: patent US20220257774A1, “AROMATIC AMINE AR AHD BET TARGETING PROTEIN DEGRADATION CHIMERA COMPOUND AND USE” (HINOVA PHARMACEUTICALS INC., priority 2019, published 2022)
